Results taken from patent publication US12427161B2, “Methods for treating and pharmaceutical compositions” (Boehringer Ingelheim International GmbH, priority 2015, dated 2025).

Columns and labels:
[1] = test system: Goto-Kakizaki diabetic rats (GK rats); experiment: Erectile responses to electrical stimulation of the cavernous nerve (ES CN), intracavernous pressure in anesthetized rats; type: in vivo, rat
Protocol: Adult male Wistar (Charles River, France) and age-matched GK rats (Metabrain Research, Chilly-Mazarin, France) were housed at least 7 days prior to the beginning of the treatment with free access to control diet and water and maintained on an inversed 12 h dark/light cycle. At 15 weeks of age, treatments were started; n=12 Wistar (group I) rats and n=24 GK (group II) rats were fed with a control diet, while n=24 GK rats (group III) were fed for 28 days by a medicated diet i.e., control diet premixed with empagliflozin 300 ppm (parts per million corresponding to an average of 25.3 mg/kg body weight of empaglfilozin in that experiment).
On day 29th after starting treatment administration, and approximately 16 hours after the last treatment administration, fasted rats (19 weeks of age) underwent an in vivo evaluation of their erectile function after electrical stimulation of the cavernous nerve (ES CN), in comparison to acute dosing of sildenafil.
Erectile responses were elicited by electric stimulation (ES) of the cavernous nerve (CN) and measured by monitoring intracavernous pressure (ICP) in anesthetized rats according to an experimental procedure previously described and well-standardized. After an overnight fasting period, rats were anesthetized (urethane […]) and their temperature maintained at 37° C. using a homoeothermic blanket. A tracheotomy was performed to prevent aspiration of saliva and to perform, when required, artificial ventilation. The carotid artery was catheterized with polyethylene tubings filled with heparinized saline (25 UI/ml) to record blood pressure (BP) via a pressure transducer (Elcomatic 750, Glasgow, UK). Simultaneous computerized measure of BP and ICP was performed. CN was exposed at the lateral aspect of the prostate, with the aid of a dissecting microscope and mounted on a bipolar platinum electrode connected to an electrical stimulator (AMS 2100, Phymep, France). In some animals an acute dose of sildenafil (0.3 mg/kg) or vehicle was intravenously injected. […] The CN was stimulated at 6V, 1 ms for 45 s by different stimulation frequencies (0, 2.5, 5, 7.5, 10, 12.5 and 15 Hz) in a randomized manner in order to assess the erectile responses. These different electrical stimulations on the increase of ICP were repeated twice in view of establishing a frequency-response curve for each animal.
Mean arterial pressure (MAP) and the amplitude of the erectile responses elicited by each ES CN were quantified for each rat and averaged for each experimental group by calculating: • ICP (mmHg)/MAP (mmHg)×100 with AICP being the difference between ICP in the flaccid state, i.e. before stimulation and ICP during the plateau phase of the erectile response, and MAP, the mean arterial pressure during the plateau phase. • AUC45/MAP with AUC45, the area under the curve during the first 45 seconds after the beginning of the electrical stimulation of the cavernous nerve and determined using the ICP level in the flaccid state before the onset of the stimulation. • AUCtot/MAP with AUCtot, the area under the curve during the entire erectile response, measured from the beginning of the electrical stimulation until the end of the erectile response and determined using the ICP level in the flaccid state before the onset of the stimulation. • ICP increase and AUC were normalized with MAP to account for the close influence of the systemic blood pressure in the amplitude of ICP increase during the plateau phase of the erectile response.
For erectile function evaluation, comparisons of frequency-response curves were performed with a two-way ANOVA statistical analysis test followed by a Bonferroni's post-test. In case of significant interaction between the two factors (i.e. frequency of ES CN and experimental group), the difference between groups of rats was examined by the modified Student's t-test with the Bonferroni's adjustment for multiple comparisons.

[2] = test system: corporal strips of diabetic GK rats; experiment: EFS-induced relaxation of PHE-precontracted corpora cavernosa strips (ex vivo isometric tension); set-up: species or system rat
Protocol: In addition, to further evaluate erectile function, at the end of the in vivo evaluation of the ED, the penis of 24 GK rats (groups IIA & IIIA) and 12 wistar rats (group I) were immediately harvested and the corpora cavernosa (CC) dissected for ex vivo isometric tension studies. After extensive washings, corporal strips were incubated in the presence of guanethidine (5 μM) and atropine (1 μM) that were also added to the organ chambers for the remainder of the experiments. The corporal strips were placed between two parallel platinum electrodes in the organ baths. After equilibration (60 min), the electric field stimulation (EFS) experiments were started. Firstly, a priming period was observed where corporal strips from Wistar, GK (control) and GK_Chronic empa were exposed to phenylephrine (PHE) (10^−5 M) followed by an EFS-induced relaxation at 1 ms, 10 s, 300 mA and 20 Hz. Then, after washings, frequency-response curves (FRC) to EFS (1-2-4-8-16-32 Hz) was constructed on PHE-precontracted corporal strips (PHE 10^−5 M). Frequency response-curves (FRC) to EFS were performed by successive stimulation of the corporal strips at 1 ms, 10 s, 300 mA and increasing frequencies (1, 2, 4, 8, 16 and 32 Hz). […]
The results from duplicate determinations in one experiment with CC from one rat were averaged and the data expressed as mean±SEM for N experiments using CC from N different rats. […]

[3] = metformin on its own, in the diabetic; cited from earlier work
GK rats = conditions: acute single dose 0.3 mg/kg; cited from earlier work

OC[C@H]1O[C@@H](c2ccc(Cl)c(Cc3ccc(O[C@H]4CCOC4)cc3)c2)[C@H](O)[C@@H](O)[C@@H]1O [empagliflozin, 1-chloro-4-(β-D-glucopyranos-1-yl)-2-[4-((S)-tetrahydrofuran-3-yloxy)-benzyl]-benzene]
pro-erectile facilitator effect compared with acute IV dose of sildenafil at 0.3 mg/kg ([1]; chronic empagliflozin 25.3±0.9 mg/kg/day): slightly but significantly lower | erectile responses to ES CN in terms of ΔICP/MAP ([1]; empagliflozin in diet 25.3±0.9 mg/kg/day for 4 weeks, vs GK control diet, p=0.08, 2-way ANOVA, FIG. 1): no difference could be statistically detected | erectile responses to ES CN in terms of AUC45/MAP ([1]; empagliflozin premixed with diet 25.3±0.9 mg/kg/day for 4 weeks, vs GK control diet, p<0.05, FIG. 2a): improved | erectile responses to ES CN in terms of AUCtot/MAP ([1]; empagliflozin premixed with diet 25.3±0.9 mg/kg/day for 4 weeks, vs GK control diet, p<0.05, FIG. 2b): improved | maximal relaxation induced by EFS at 32 Hz (percentage of inhibition of the contractile response to PHE) ([2]; 4-week empagliflozin 25.3±0.9 mg/kg/d, mean±SEM, not significantly different from untreated): −42.0±2.9% | relaxation induced by EFS on PHE precontracted cavernosal strips (frequency-response curve) ([2]; 4-week treatment of empagliflozin at 25.3±0.9 mg/kg/d, vs untreated GK, p<0.05, 2-way ANOVA, FIG. 3): slightly but significantly improved

CN(C)C(=N)N=C(N)N [metformin]
average improvement in the HbA1c value [3]: 1.0-1.5%

CCCc1nn(C)c2c(=O)[nH]c(-c3cc(S(=O)(=O)N4CCN(C)CC4)ccc3OCC)nc12 [sildenafil]
erectile response to ES CN in terms of ΔICP/MAP ([1]; sildenafil 0.3 mg/kg acute i.v. 4 min before evaluation, vs GK control, p<0.0001, 2-way ANOVA, FIG. 1): significantly increased | erectile response to ES CN in terms of AUC45/MAP ([1]; sildenafil 0.3 mg/kg acute i.v., vs GK control, p<0.0001, 2-way ANOVA, FIG. 2a): significantly increased | erectile response to ES CN in terms of AUCtot/MAP ([1]; sildenafil 0.3 mg/kg acute i.v., vs GK control, p<0.0001, 2-way ANOVA, FIG. 2b): significantly increased | impaired erectile function in GK rats (GK rats): partially improved
